Experimental data as given in patent publication US6737383B1, “Herbicidal oxadiazolidines” (priority 1999, dated 2004).

Legend:
velvetleaf = assay: Test B pre/postemergence velvetleaf; format: in vivo, Abutilon theophrasti
In short: (§1)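 Test chemicals in a non-phytotoxic solvent mixture with surfactant were sprayed preemergence onto planted seeds and postemergence onto plants 2 to 18 cm tall (1- to 4-leaf stage). After twelve to sixteen days in a greenhouse, injury was visually rated against untreated controls from 0 (no effect) to 10 (complete control).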

corn = assay: Test B pre/postemergence corn; format: in vivo, Zea mays
In short: as §1

giant foxtail = assay: Test B pre/postemergence giant foxtail; format: in vivo, Setaria faberii
In short: as §1

purple nutsedge = assay: Test B pre/postemergence purple nutsedge; format: in vivo, Cyperus rotundus
In short: as §1

soybean = assay: Test B pre/postemergence soybean; format: in vivo, Glycine max
In short: as §1

blackgrass = assay: Test B pre/postemergence blackgrass; format: in vivo, Alopecurus myosuroides
In short: as §1

surinam grass = assay: Test B pre/postemergence surinam grass; format: in vivo, Brachiaria decumbens
In short: as §1

cocklebur = assay: Test B pre/postemergence cocklebur; format: in vivo, Xanthium strumarium
In short: as §1

rape = assay: Test B pre/postemergence rape; format: in vivo, Brassica napus
In short: as §1

bedstraw = assay: Test B pre/postemergence bedstraw; format: in vivo, Galium aparine
In short: as §1

wild oat = assay: Test B pre/postemergence wild oat; format: in vivo, Avena fatua
In short: as §1

crabgrass = assay: Test B pre/postemergence crabgrass; format: in vivo, Digitaria sanguinalis
In short: as §1

pigweed = assay: Test B pre/postemergence pigweed; format: in vivo, Amaranthus retroflexus
In short: as §1

morningglory = assay: Test B pre/postemergence morningglory; format: in vivo, Ipomoea hederacea
In short: as §1

sugar beet = assay: Test B pre/postemergence sugar beet; format: in vivo, Beta vulgaris
In short: as §1

wheat = assay: Test B pre/postemergence wheat; format: in vivo, Triticum aestivum
In short: as §1

[1] = Preemergence, Rate 62 g/ha, scale of 0 to 10 where 0 is no effect and 10 is complete control
[2] = Preemergence, Rate 125 g/ha, 0 is no effect, 10 is complete control
[3] = Preemergence, Rate 250 g/ha, scale 0 to 10, 0 is no effect, 10 is complete control
[4] = Preemergence, Rate 500 g/ha, scale 0 to 10 (0 no effect, 10 complete control)
[5] = Rate 250 g/ha, Postemergence, scale 0 to 10, 0 is no effect, 10 is complete control
[6] = Rate 500 g/ha, Postemergence, scale 0 to 10
[7] = Postemergence, Rate 125 g/ha, scale of 0 to 10 where 0 is no effect and 10 is complete control
[8] = Rate 62 g/ha, Postemergence, scale of 0 to 10 where 0 is no effect and 10 is complete control

CC(C)N(C(=O)n1oc(=O)n([C@@H](C)c2ccccc2)c1=O)c1ccccc1 [Compound 168]
Velvetleaf plant response rating (velvetleaf; [1]): 0 | Velvetleaf plant response rating (0 to 10 scale) (velvetleaf; [2]): 0 | Velvetleaf plant response rating (velvetleaf; [3]): 0 | Velvetleaf plant response rating (velvetleaf; [4]): 6 | Plant response rating, Velvetleaf (velvetleaf; [5]): 1 | Velvetleaf plant response rating (velvetleaf; [6]): 1 | Corn plant response rating (corn; [7]): 0 | Corn plant response rating (corn; [1]): 0 | Corn plant response rating (0 to 10 scale) (corn; [2]): 0 | Corn plant response rating (corn; [3]): 0 | Corn plant response rating (corn; [4]): 0 | Corn plant response rating (corn; [8]): 0 | Plant response rating, Corn (corn; [5]): 0 | Corn plant response rating (corn; [6]): 0 | Giant foxtail plant response rating (giant foxtail; [7]): 0 | Giant foxtail plant response rating (giant foxtail; [1]): 6 | Giant foxtail plant response rating (0 to 10 scale) (giant foxtail; [2]): 8 | Giant foxtail plant response rating (giant foxtail; [3]): 10 | Giant foxtail plant response rating (giant foxtail; [4]): 10 | Giant foxtail plant response rating (giant foxtail; [8]): 0 | Plant response rating, Giant foxtail (giant foxtail; [5]): 1 | Giant foxtail plant response rating (giant foxtail; [6]): 3 | Nutsedge plant response rating (purple nutsedge; [7]): 0 | Nutsedge plant response rating (purple nutsedge; [1]): 0 | Nutsedge plant response rating (0 to 10 scale) (purple nutsedge; [2]): 0 | Nutsedge plant response rating (purple nutsedge; [3]): 0 | Nutsedge plant response rating (purple nutsedge; [4]): 0 | Nutsedge plant response rating (purple nutsedge; [8]): 0 | Plant response rating, Nutsedge (purple nutsedge; [5]): 0 | Nutsedge plant response rating (purple nutsedge; [6]): 0 | Soybean plant response rating (soybean; [7]): 1 | Soybean plant response rating (soybean; [1]): 0 | Soybean plant response rating (0 to 10 scale) (soybean; [2]): 0 | Soybean plant response rating (soybean; [3]): 0 | Soybean plant response rating (soybean; [4]): 0 | Soybean plant response rating (soybean; [8]): 1 | Plant response rating, Soybean (soybean; [5]): 2 | Soybean plant response rating (soybean; [6]): 2 | Blackgrass plant response rating (blackgrass; [7]): 0 | Blackgrass plant response rating (blackgrass; [1]): 0 | Blackgrass plant response rating (0 to 10 scale) (blackgrass; [2]): 1 | Blackgrass plant response rating (blackgrass; [3]): 2 | Blackgrass plant response rating (blackgrass; [4]): 2 | Blackgrass plant response rating (blackgrass; [8]): 0 | Plant response rating, Blackgrass (blackgrass; [5]): 2 | Blackgrass plant response rating (blackgrass; [6]): 7 | B. signalgrass plant response rating (surinam grass; [7]): 0 | B. signalgrass plant response rating (surinam grass; [1]): 0 | B. signalgrass plant response rating (0 to 10 scale) (surinam grass; [2]): 2 | B. signalgrass plant response rating (surinam grass; [3]): 2 | B. signalgrass plant response rating (surinam grass; [4]): 5 | B. signalgrass plant response rating (surinam grass; [8]): 0 | Plant response rating, B. signalgrass (surinam grass; [5]): 0 | B. signalgrass plant response rating (surinam grass; Rate 500 g/ha, Postemergence, scale 0 to 10, 0 no effect, 10 complete control): 0 | Cocklebur plant response rating (cocklebur; [7]): 0 | Cocklebur plant response rating (cocklebur; [1]): 0 | Cocklebur plant response rating (0 to 10 scale) (cocklebur; [2]): 0 | Cocklebur plant response rating (cocklebur; [3]): 0 | Cocklebur plant response rating (cocklebur; [4]): 0 | Cocklebur plant response rating (cocklebur; [8]): 0 | Plant response rating, Cocklebur (cocklebur; [5]): 2 | Cocklebur plant response rating (cocklebur; [6]): 2 | Rape plant response rating (rape; [7]): 0 | Rape plant response rating (rape; [1]): 0 | Rape plant response rating (0 to 10 scale) (rape; [2]): 0 | Rape plant response rating (rape; [3]): 0 | Rape plant response rating (rape; [4]): 0 | Rape plant response rating (rape; [8]): 0 | Plant response rating, Rape (rape; [5]): 0 | Rape plant response rating (rape; [6]): 0 | Bedstraw plant response rating (bedstraw; [7]): 3 | Bedstraw plant response rating (bedstraw; [1]): 0 | Bedstraw plant response rating (0 to 10 scale) (bedstraw; [2]): 0 | Bedstraw plant response rating (bedstraw; [3]): 0 | Bedstraw plant response rating (bedstraw; [4]): 0 | Bedstraw plant response rating (bedstraw; [8]): 3 | Plant response rating, Bedstraw (bedstraw; [5]): 8 | Wild oats plant response rating (wild oat; [1]): 0 | Wild oats plant response rating (0 to 10 scale) (wild oat; [2]): 0 | Wild oats plant response rating (wild oat; [3]): 1 | Wild oats plant response rating (wild oat; [4]): 3 | Plant response rating, Wild oats (wild oat; [5]): 0 | Wild oats plant response rating (wild oat; [6]): 0 | Crabgrass plant response rating (crabgrass; [7]): 1 | Crabgrass plant response rating (crabgrass; [1]): 0 | Crabgrass plant response rating (0 to 10 scale) (crabgrass; [2]): 3 | Crabgrass plant response rating (crabgrass; [3]): 7 | Crabgrass plant response rating (crabgrass; [4]): 7 | Crabgrass plant response rating (crabgrass; [8]): 0 | Plant response rating, Crabgrass (crabgrass; [5]): 2 | Crabgrass plant response rating (crabgrass; [6]): 9 | Redroot pigweed plant response rating (pigweed; [7]): 0 | Redroot pigweed plant response rating (pigweed; [1]): 0 | Redroot pigweed plant response rating (0 to 10 scale) (pigweed; [2]): 0 | Redroot pigweed plant response rating (pigweed; [3]): 0 | Redroot pigweed plant response rating (pigweed; [4]): 0 | Redroot pigweed plant response rating (pigweed; [8]): 0 | Plant response rating, Redroot pigweed (pigweed; [5]): 0 | Redroot pigweed plant response rating (pigweed; [6]): 0 | Morningglory plant response rating (morningglory; [7]): 8 | Morningglory plant response rating (morningglory; [1]): 0 | Morningglory plant response rating (0 to 10 scale) (morningglory; [2]): 0 | Morningglory plant response rating (morningglory; [3]): 0 | Morningglory plant response rating (morningglory; [4]): 0 | Morningglory plant response rating (morningglory; [8]): 7 | Plant response rating, Morningglory (morningglory; [5]): 10 | Morningglory plant response rating (morningglory; [6]): 10 | Sugarbeets plant response rating (sugar beet; [7]): 0 | Sugarbeets plant response rating (sugar beet; [1]): 0 | Sugarbeets plant response rating (0 to 10 scale) (sugar beet; [2]): 0 | Sugarbeets plant response rating (sugar beet; [3]): 4 | Sugarbeets plant response rating (sugar beet; [4]): 7 | Sugarbeets plant response rating (sugar beet; [8]): 0 | Plant response rating, Sugarbeets (sugar beet; [5]): 0 | Sugarbeets plant response rating (sugar beet; [6]): 0 | Wheat plant response rating (wheat; [1]): 0 | Wheat plant response rating (0 to 10 scale) (wheat; [2]): 0 | Wheat plant response rating (wheat; [3]): 0 | Wheat plant response rating (wheat; [4]): 0 | Plant response rating, Wheat (wheat; [5]): 0 | Wheat plant response rating (wheat; [6]): 0
